Data published in article PMC12311729, “Probing the Mechanism of L‑DOPA 2,3-Dioxygenase Using Synthetic Derivatives of 3,4-Dihydroxyhydrocinnamic Acid” (ACS Omega, 2025).

Assays:
[1] = molecular target: L-DOPA 2,3-dioxygenase from S. lincolnensis (LmbB1) (Streptomyces lincolnensis, UniProt Q54354); design: method as in Biochemistry 2021, 60, 32, 2492–2507; conditions: percentage of L-DOPA; ref Biochemistry 2021, 60, 32, 2492–2507; cited from earlier work
[2] = design: method as in Biochemistry 2021, 60, 32, 2492–2507; conditions: percentage of L-DOPA; ref Biochemistry 2021, 60, 32, 2492–2507; cited from earlier work
[3] = design: method as in Biochemistry 2021, 60, 32, 2492–2507; conditions: percentage of L-DOPA; ref Biochemistry 2021, 60, 32, 2492–2507; cited from earlier work; remark: listed apart in the source
[4] = design: method as in Biochemistry 2021, 60, 32, 2492–2507; conditions: ref Biochemistry 2021, 60, 32, 2492–2507, cited from earlier work; for Catecholic pKa value relative to L-DOPA x 100: percentage of L-DOPA
[5] = molecular target: L-DOPA 2,3-dioxygenase from S. hygroscopicus jingganensis (ShjDDO) (Streptomyces hygroscopicus, UniProt H2JL11); design: method as in Biochemistry 2021, 60, 32, 2492–2507; conditions: percentage of L-DOPA; ref Biochemistry 2021, 60, 32, 2492–2507; cited from earlier work
L-DOPA 2,3-dioxygenase from S. hygroscopicus jingganensis (ShjDDO), sequence (H2JL11 1-162): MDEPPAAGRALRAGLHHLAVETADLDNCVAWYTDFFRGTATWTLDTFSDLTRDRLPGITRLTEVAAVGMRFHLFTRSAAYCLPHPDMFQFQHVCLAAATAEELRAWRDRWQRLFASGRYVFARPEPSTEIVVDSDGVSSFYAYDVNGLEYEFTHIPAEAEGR

[6] = Cyclic voltammetry (redox potentials on a GCE); assay type: physicochemical; conditions: GCE (d = 2 mm)
Excerpt: Reduction and oxidation potentials were experimentally performed by cyclic voltammetry (CV) at biological pH 7.4, as previously described. All samples were run on a CH Instruments 600E Potentiostat in a one-compartment cell equipped with a three-electrode system arrangement. The three-electrode system included a saturated calomel electrode as the reference electrode, a platinum wire as the auxiliary electrode, and a glassy carbon electrode (GCE, d = 2 mm) as the working electrode. The GCE was polished between each sample scan with an aqueous slurry of alumina powder on a microcloth pad. The electrodes were rinsed with distilled water prior to the next scan. All scans were conducted under nitrogen for oxygen displacement and at room temperature (rt, 25 ± 1 °C). All samples were prepared as close to the scan as possible (approximately 2 min each). Each sample (5 mL) contained 0.1 mM catecholic substrate and 1 μM DMSO in 0.1 M phosphate buffer at a pH of 7.4 or 6.0. […] The cyclic voltammograms for the compounds at both pH 6.0 and 7.4 are available in Figures S40–S51.

[7] = Determination of pKa values by spectrophotometric titration; conditions: first catecholic deprotonation; determined spectroscopically from pH 3 to 12.5
Procedure: A buffer system utilizing five different buffers was prepared to cover the pH range of 3.0 to 12.50. A Thermo Scientific Orion Star A211 pH meter was used to measure and determine the pH of each buffer. The pH meter was calibrated using three- and four-point calibration with pH values of 4.00, 7.01, and 10.01 and 4.00, 7.01, 10.01, and 12.00, respectively.
The buffer systems were prepared as previously described and included: NaOAc/HOAc buffers (C = 0.1 M; I = 0.1 M) were used to cover the pH range of 3.0 to 5.50. KH2PO4/K2HPO4 buffers (C = 0.05 M; I = 0.1 M) were used to cover the pH range of 6.00 to 8.00. CHES buffers (C = 0.05 M; I = 0.1 M) were used to cover the pH range of 8.50 to 10.50. Na2HPO4/Na3PO4 buffers (C = 0.05 M; I = 0.1 M) were used to cover the pH range of 11.00 to 12.00. KCl buffers (C = 0.1 M; I = 0.1 M) were used to cover the pH range of 12.00 to 12.50.
The absorbance spectra of the compounds were determined at each pH as previously described. Briefly, a stock solution was prepared for each compound by weighing 2 mg of the compound using a high-precision analytical balance. Each compound was then dissolved in DMSO at a concentration of 10 mM. A UV-transparent 96-well microplate (Corning clear acrylic 96-well UV plate with a UV-transparent flat bottom) was loaded with 196 μL of buffer solution and 4 μL of the catechol stock in each well to get a final concentration of 200 μM. DMSO (4 μL) was added to 196 μL of the appropriate buffer to produce a blank solution for each buffer.
The 96-well plate was loaded into the microplate reader and incubated at 30 °C and shaken for 10 min before the reading. Absorbance readings were completed by using a Synergy HTX 15032517 microplate reader. Each well was read at wavelengths from 210 to 600 nm with 2-nm increments for each scan over a duration of 60 min.
The data were analyzed as previously described. Raw UV-spectra scans were exported to the Excel program. They were first processed by subtracting the reading of the blank solutions from the reading of each compound at the corresponding wavelengths. […] Finally, the spectral difference between the pH 3.0 buffer and the spectra at all other pH values was plotted. Additionally, the spectral difference between the pH 4.0 buffer and the spectra at all other higher pH values was plotted. The wavelengths for the maximum positive and negative absorbance were determined by using the graphs of the spectral difference plots, both for the pH 3.0 and pH 4.0 spectral difference plots. The absolute maximum positive and total absorbance differences at these chosen wavelengths were plotted against the pH of each buffer. The data were imported into the Origin 6.0 program, and the pK a values were determined with a nonlinear regression using eq : 1 Absorbancetotal=εHA−εA−[10^(pH−pKa)]/1+10^(pH−pKa)×[St]
εHA is the extinction coefficients of the acid form of the compound, and εA ^– is the extinction coefficient of the base form of the compound (i.e., the minima and maxima of the absorbance difference curve, respectively), and [S t] is the total compound concentration.
O=C(O)CCc1ccc(O)c(O)c1 = assay: UV-visible steady-state assay of L-DOPA 2,3-dioxygenase (ShjDDO); assay type: biochemical, Streptomyces hygroscopicus jingganensis; conditions: other: S. hygroscopicus jingganensis enzyme
Procedure: (§1) Purified, reconstituted L-DOPA 2,3-dioxygenases were assessed for activity by monitoring the cleavage of catecholic substrates using UV–visible spectroscopy. 3,4-Dihydroxyhydrocinnamic acid (DHHCA, 3) was purchased from Sigma-Aldrich. 6-CyanoDHHCA (5) and 6-bromoDHHCA (4) were synthesized as described above.
(§2) Molecular oxygen (AirGas) was bubbled directly into the reaction buffer through a glass-bonded silica gas diffuser (Bubblemac Industries, Inc.) or as a gas mixture blended with air (AirGas). Solutions were bubbled with oxygen for several minutes prior to use and for the duration of the experiment. To determine the K M for oxygen (i.e., K MO2), L-DOPA 2,3-dioxygenases (0.25–4.0 μM) were reacted with a saturating concentration of the catecholic substrate DHHCA/6-X-DHHCA derivatives (2–10× the K M sufficient to achieve k cat) and various oxygen concentrations (21–100% or 270–1300 μM at 22 °C). The concentration of oxygen was varied by changing the percentage of oxygen in the blend using a galvanic oxygen sensor and oxygen monitor (AirGas) and then bubbling solutions, as described above. Molecular oxygen percentages were converted to molar concentrations using a reference temperature of 22 °C. The reaction of L-DOPA 2,3-dioxygenases with DHHCA/6-X-DHHCA derivatives as a function of oxygen concentration was followed by the appearance of the steady-state cleavage product by using UV–visible spectroscopy.
(§3) The extinction coefficients for steady-state cleavage products of DHHCA and synthetic 6-X-DHHCA derivatives were determined by reacting various concentrations of DHHCA/6-X-DHHCA derivatives at 22 °C with a 10-fold stoichiometric excess of enzyme (quantified by Fe^II–see Reconstitution) in 50 mM HEPES buffer with 154 mM NaCl at pH 7.5, bubbled with 100% oxygen to a final concentration of 780–910 μM, depending on the volume of oxygenated buffer that comprised the reaction (60–70%). Substrate solutions were prepared from authentic synthetic standards using an analytical balance, and reactions were run to completion as assessed by the appearance of the steady-state product. The λmax and extinction coefficients of DHHCA, 6-cyanoDHHCA, and 6-bromoDHHCA were determined herein as ε380 = 40 740 ± 820 M^–1cm^–1, ε385 = 33 256 ± 484 M^–1cm^–1, and ε380 = 35 282 ± 1190 M^–1cm^–1, respectively (Figure S52).
(§4) Steady-state kinetic data were obtained through a UV–visible spectroscopic assay. Initial rates were obtained from the slopes of the linear regions of the progress curves and plotted versus substrate concentration to yield a hyperbola, which was analyzed using the Michaelis–Menten expression and nonlinear least-squares fitting (NLSF) with Origin 6.0 (Microcal). Two possible derivations of the Michaelis–Menten expression were used: 1) the traditional expression y = k cat × x/(K M + x), where y is Rate/E 0 or the rate of product formation (μM/min) divided by the starting enzyme concentration (μM), x is substrate concentration (μM) and k SP (also known as k cat × K M ^–1)–that is, the second-order rate constant of enzyme and substrate–is extracted from the fitted constants; or 2) the alternative derivation that extracts k SP and k cat directly from the fit: y = (k SP × x)/((1 + k SP × x)/k cat), and where y is Rate/E 0 or the rate of product formation (μM/min) divided by the starting enzyme concentration (μM), x is substrate concentration (μM), k SP is equivalent to k cat×K M ^–1, and K M is extracted from k cat/k cat×K M ^–1.

[8] = test system: N#Cc1cc(O)c(O)cc1CCC(=O)O; assay: as above; assay type: biochemical, Streptomyces hygroscopicus jingganensis; conditions: other: S. hygroscopicus jingganensis enzyme
Procedure: as §1, §2, §3, §4

O=C(O)CCc1cc(O)c(O)cc1Br = assay: as above; assay type: biochemical, Streptomyces hygroscopicus jingganensis; conditions: other: S. hygroscopicus jingganensis enzyme
Procedure: as §1, §2, §3, §4

[9] = substrate: O=C(O)CCc1cc(O)c(O)cc1Br; assay: UV-visible steady-state assay of L-DOPA 2,3-dioxygenase (LmbB1); assay type: biochemical, Streptomyces lincolnensis; conditions: other: S. lincolnensis enzyme, pH 7.5, 22 °C
Procedure: as §1
as §2, with “Molecular oxygen percentages were converted to molar concentrations using a reference temperature of 22 °C. The reaction of L-DOPA 2,3-dioxygenases with DHHCA/6-X-DHHCA derivatives as a function of oxygen concentration was followed by the appearance of the steady-state cleavage product by using UV–visible spectroscopy.” left out
as §3, with “S52). […]” for “S52).”

[10] = substrate: N#Cc1cc(O)c(O)cc1CCC(=O)O; assay: as above; assay type: biochemical, Streptomyces lincolnensis; conditions: other: S. lincolnensis enzyme, pH 7.5, 22 °C
Procedure: as §1
as §2, with “Molecular oxygen percentages were converted to molar concentrations using a reference temperature of 22 °C. The reaction of L-DOPA 2,3-dioxygenases with DHHCA/6-X-DHHCA derivatives as a function of oxygen concentration was followed by the appearance of the steady-state cleavage product by using UV–visible spectroscopy.” left out
as §3, with “S52). […]” for “S52).”

[11] = substrate: O=C(O)CCc1ccc(O)c(O)c1; assay: as above; assay type: biochemical, Streptomyces lincolnensis; conditions: other: S. lincolnensis enzyme, pH 7.5, 22 °C
Procedure: as §1
as §2, with “Molecular oxygen percentages were converted to molar concentrations using a reference temperature of 22 °C. The reaction of L-DOPA 2,3-dioxygenases with DHHCA/6-X-DHHCA derivatives as a function of oxygen concentration was followed by the appearance of the steady-state cleavage product by using UV–visible spectroscopy.” left out
as §3, with “S52). […]” for “S52).”

[12] = saturating catecholic substrate, 22 °C, pH 7.5

For `N#Cc1cc(O)c(O)cc1CCN` [Compound 6-cyanoDA], the “kSP, O2 (μM^-1 min^-1) at pH 7.5 relative to L-DOPA x 100 for LmbB1” value [1] is given as 16%, the “E1/2 (mV) at pH 7.4 relative to L-DOPA x 100” value [2] is given as 129% and the “CSEV (Å^3) relative to L-DOPA x 100” value [3] is given as 94%. For the same molecule, the “Catecholic pKa value relative to L-DOPA x 100” value [4] was 80%, the “pK a value of dopamine counterpart” value ([4]; similarly 6-substituted dopamine) was 7.03 ± 0.06 and the “kSP, O2 (μM^-1 min^-1) at pH 7.5 relative to L-DOPA x 100 for ShjDDO” value [5] was 3%.

For `NCCc1ccc(O)c(O)c1` [Dopamine (DA, 2), dopamine], the “(E p)a Oxidation” value ([6]; pH 6.0) was 354 mV, the “(E p)c Reduction” value ([6]; pH 6.0) was 84 mV and the E1/2 ([6]; pH 6.0) was 219 mV. The Ipa/Ipc ([6]; pH 6.0) was 2.89, the ΔE p ([6]; pH 6.0) was 270 mV and the “(E p)a Oxidation” value ([6]; pH 7.4) was 178 mV. For the same molecule, the “(E p)c Reduction” value ([6]; pH 7.4) was 54 mV, the E1/2 ([6]; pH 7.4) was 116 mV and the Ipa/Ipc ([6]; pH 7.4) was 1.32. The ΔE p ([6]; pH 7.4) was 124 mV, the “kSP, O2 (μM^-1 min^-1) at pH 7.5 relative to L-DOPA x 100 for LmbB1” value [1] was 6% and the “E1/2 (mV) at pH 7.4 relative to L-DOPA x 100” value [2] was 58%. For the same molecule, the “CSEV (Å^3) relative to L-DOPA x 100” value [3] was 84%, the “Catecholic pKa value relative to L-DOPA x 100” value [4] was 102% and the pK a value [7] was 8.99 ± 0.05.

Work on “L-DOPA 2,3-dioxygenase from S. hygroscopicus jingganensis (ShjDDO) (Streptomyces hygroscopicus subsp. jinggangensis 5008)” yielded a Km (O=C(O)CCc1ccc(O)c(O)c1; pH 7.5, 22 °C) of 422 ± 94 µM, a Km (O=C(O)CCc1ccc(O)c(O)c1; [12]) of 1059 ± 246 µM and a Km ([8]; pH 7.5, 22 °C) of 228 ± 53 µM. The Km [8, 12] was 1019 ± 236 µM, the Km (O=C(O)CCc1cc(O)c(O)cc1Br; pH 7.5, 22 °C) was 926 ± 169 µM and the Km (O=C(O)CCc1cc(O)c(O)cc1Br; [12]) was 759 ± 66 µM.

B1: L-DOPA 2,3-dioxygenase from S. lincolnensis (LmbB1) (Streptomyces lincolnensis) (protein)
chain: MPSVKSMPPVSVHHVGVQTADLDNSISWYQEFFGCTVSWTLDTFSALTHSRLPGIERLAELRYGDVRFHHIGVKSGAAERSPAEANQFQHVCFAVGSPTELEAWRSRWLELYARGRWTFAVPERATDIDVDKDGVRSFYALDPNGLEYEFTYVPDGPR
Molecule B1 has a Km [9] of 205 ± 24 µM, a Km [10] of 131 ± 16 µM and a Km [11] of 922 ± 152 µM.
